In patent publication US8809280B2, “Therapeutic peptides” (Lytix Biopharma AS, priority 2009, dated 2014):
Values after ≈ are worked out from the molar mass of the structure shown. Like-named read-outs stand apart in the source and are kept apart here.

Key:
[1] = tested on: Staphylococcus aureus (ATTC 25923); test: microbe, parasite or virus in culture; format: cell-based
Method in brief: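 Di-TFA salts tested in duplicate at 0.5–200 μg/ml against exponential-phase bacteria at 2×10^6 cfu/ml grown in 2% peptone water. Growth judged by well turbidity, with no-peptide and gentamicin controls.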

[2] = tested on: methicillin resistant Staphylococcus aureus (ATCC 33591); test: microbe, parasite or virus in culture; format: cell-based
Method in brief: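 Di-TFA salts tested in duplicate at 200 down to 0.5 μg/ml against exponentially grown bacteria at 2×10^6 cfu/ml. Growth judged by well turbidity, with no-peptide and gentamicin controls.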

[3] = tested on: methicillin resistant Staphylococcus epidermidis (ATCC 27626); test: microbe, parasite or virus in culture; format: cell-based
Method in brief: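 Exponentially grown bacteria (2% peptone water) at 2×10^6 cfu/ml exposed in duplicate to di-TFA salts at 0.5–200 μg/ml. Growth or no growth judged by well turbidity; no-peptide and gentamicin controls included.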

[4] = tested on: Escherichia coli (ATTC 25922); test: microbe, parasite or virus in culture; format: cell-based
Method in brief: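 Broth dilution in 2% Bacto Peptone water, inoculum 2×10^6 cfu/ml of exponential-phase bacteria; compounds (di-TFA salts) tested in duplicate at 200 down to 0.5 μg/ml. Growth judged by well turbidity, with no-peptide negative and gentamicin positive controls.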

[5] = tested on: Pseudomonas aeruginosa (ATCC 27853); test: microbe, parasite or virus in culture; format: cell-based; conditions: for MIC: read-out: MIC P. aeruginosa
Description: Each compound was tested in duplicates at 200, 100, 50, 35, 15, 10, 5, 2.5, 1, 0.5 μg/ml. All tested compounds were di-trifluoroacetic acid salts.

[6] = tested on: human red blood cells; test: cells; format: cell-based
Method in brief: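 Washed heparinized RBCs, diluted to 10% hematocrit then to 1% v/v final, incubated with compounds in PBS (1–1000 μg/mL) for 1 h at 37 °C with agitation. Hemoglobin release read at 405 nm against PBS (0%) and 0.1% Triton X-100 (100%); value reported is concentration giving 50% hemolysis.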

[7] = biological target: α-chymotrypsin (Bos taurus, UniProt P00766, DEL14-15/DEL147-148); test: Stability against α-chymotrypsin; format: in vitro ADME; conditions: over a period of 48 hours
Description: The stability testing against α-chymotrypsin was conducted by dissolving the desired compounds to 1 mg/ml in water. α-Chymotrypsin was dissolved to 0.1 mg/ml in 1 mM HCl containing 2 mM CaCl2. The enzymatic digestion was performed in 100 mM TRIS HCl containing 10 mM CaCl2. Final enzyme concentration was 2 μg/ml, and final peptide concentration was 100 μg/ml. Total volume was 0.5 ml.
15 μl samples were collected at 0, 15, 30, 60, 120 and 240 min in addition to the 24 and 48 hours samples. To the samples it was added an external standard (atenolol hydrochloride) and 100 μl 10% acetic acid to terminate digestion before it was diluted to 1 ml with water.
For every test there were done a negative control without enzyme to ensure that degradation was due to enzyme activity and not other factors. Succinyl-ala-ala-pro-phe-para nitroanhiine was used as positive control. All test were run in triplicates.

[8] = tested on: A20; test: cells; format: cell-based; conditions: for Anti-Cancer Selectivity MRC-5/A20: ratio of MRC-5 to A20 values; for Anti-Cancer Selectivity RBC/A20: ratio of RBC EC50 to A20 IC50
Description: Cancer Cell Lines A20 or MethA Anticancer assays: 500 μg/ml

[9] = tested on: MRC-5; test: Toxicity assay MRC-5; format: cell-based; conditions: highest concentration tested 500 μg/ml; for IC50: Homo sapiens, MRC5, Example 2
Description: Cells for Toxicity Studies Used MRC-5 and human RBC MRC-5 assay: 500 μg/ml

[10] = ATTC 25923, read-out: MIC S. aureus
[11] = ATTC 25922, read-out: MIC E. coli
[12] = Staphylococcus aureus, Example 2, values separated by / are repeat tests, read-out: Antimicrobial potency (MIC) S. aureus
[13] = Staphylococcus aureus, ATCC 33591 / MRSA, Example 2, values separated by / are repeat tests, read-out: Antimicrobial potency (MIC) MRSA
[14] = Staphylococcus epidermidis, ATCC 27626 / MRSE, Example 2, values separated by / are repeat tests, read-out: Antimicrobial potency (MIC) MRSE
[15] = Escherichia coli, Example 2, values separated by / are repeat tests, read-out: Antimicrobial potency (MIC) E. coli
[16] = Homo sapiens, Erythrocyte, Example 2, highest concentration tested 1000 μg/ml, * low solubility in the test media, read-out: Toxicity RBC (EC50)
[17] = Staphylococcus aureus, ATCC25923, Example 4, ATCC 25923, di-trifluoroacetate salts, highest concentration tested 200 μg/ml, read-out: MIC S. aureus
[18] = Staphylococcus aureus, ATCC33591, Example 4, ATCC 33591, di-trifluoroacetate salts, highest concentration tested 200 μg/ml, read-out: MIC MTRSA
[19] = Staphylococcus epidermidis, ATCC 27626 / MRSE, Example 4, ATCC 27626, di-trifluoroacetate salts, highest concentration tested 200 μg/ml, read-out: MIC MRSE
[20] = Escherichia coli, ATCC25922, Example 4, ATCC 25922, di-trifluoroacetate salts, highest concentration tested 200 μg/ml, read-out: MIC E. coli
[21] = Pseudomonas aeruginosa, ATCC27853, Example 4, ATCC 27853, di-trifluoroacetate salts, highest concentration tested 200 μg/ml
[22] = Erythrocyte, Example 4, hemolytic activity, human red blood cells, highest concentration tested 1000 μg/ml, read-out: EC50 RBC

| SMILES | MBC S. aureus ([1]; ATTC 25923) [µM] | MIC [1, 10] [µM] | MBC MRSA ([2]; ATCC 33591) [µM] | MBC MRSE ([3]; ATCC 27626) [µM] | MIC ([3]; ATCC 27626, read-out: MIC MRSE) [µM] | MBC E. coli ([4]; ATTC 25922) [µM] | MIC [4, 11] [µM] | MIC MRSA ([2]; ATCC 33591) [µM] | proteolytic stability against α-chymotrypsin [7] | Therapeutic index S. aureus ([1]; EC50 RBC divided by MIC) | MIC [1, 17] [µM] | Therapeutic index MRSA ([2]; EC50 RBC divided by MIC) | MIC [2, 18] [µM] | Therapeutic index MRSE ([3]; EC50 RBC divided by MIC) | MIC [3, 19] [µM] | Therapeutic index E. coli ([4]; EC50 RBC divided by MIC) | MIC [4, 20] [µM] | Therapeutic index P. aeruginosa ([5]; EC50 RBC divided by MIC) | MIC [5, 21] [µM] | EC50 [6, 22] [µM] | further results |
| --- | --- | --- | --- | --- | --- | --- | --- | --- | --- | --- | --- | --- | --- | --- | --- | --- | --- | --- | --- | --- | --- |
| CN(C)CCN1CCN(C(=O)C(CN)(Cc2ccc(C(C)(C)C)cc2)Cc2ccc(C(C)(C)C)cc2)CC1 [Compound 4d] | >307 | 13 | >307 | >307 | 13 | >307 | 13 |  |  |  |  |  |  |  |  |  |  |  |  |  | Therapeutic index S. aureus ([1]; ATTC 25923): 26; MIC S. aureus ([1]; Example 1, ATTC 25923, di TFA salts, highest concentration tested 200 μg/ml): — (The notation “—”denotes no detectable activity (MIC or EC50) within the concentration range tested.); Therapeutic index MRSA ([2]; ATCC 33591): 26; MIC ([2]; ATCC 33591, read-out: MIC MTRSA): 13 µM; MIC MRSA ([2]; Example 1, ATCC 33591, di TFA salts, highest concentration tested 200 μg/ml): — (The notation “—”denotes no detectable activity (MIC or EC50) within the concentration range tested.); Therapeutic index MRSE ([3]; ATCC 27626): 26; MIC MRSE ([3]; Example 1, ATCC 27626, di TFA salts, highest concentration tested 200 μg/ml): — (The notation “—”denotes no detectable activity (MIC or EC50) within the concentration range tested.); Therapeutic index E. coli ([4]; ATTC 25922): 26; MIC E. coli ([4]; Example 1, ATTC 25922, di TFA salts, highest concentration tested 200 μg/ml): — (The notation “—”denotes no detectable activity (MIC or EC50) within the concentration range tested.); Therapeutic index P. aeruginosa ([5]; ATCC 27853): 1.3; MIC ([5]; ATCC 27853): 255 µM (≈ 133 µg/mL); EC50 ([6]; red cells of human): 337 µM |
| Cc1ccc(CC(CN)(Cc2ccc(C)cc2)C(=O)N[C@@H](CCCNC(=N)N)C(N)=O)cc1 [Compound 4h] | 147 (≈ 66.5 µg/mL) | 147 | 110 (≈ 49.8 µg/mL) | 110 (≈ 49.8 µg/mL) | 74 | >294 |  | 74 (≈ 33.5 µg/mL) | no degradation could be detected |  |  |  |  |  |  |  |  |  |  |  |  |
| N=C(N)NCCC[C@H](NC(=O)C(CN)(Cc1ccc(C(F)(F)F)cc1)Cc1ccc(C(F)(F)F)cc1)C(N)=O [Compound 4i] | 12.7 (≈ 7.12 µg/mL) | 12.7 | 6.3 (≈ 3.53 µg/mL) | 12.7 (≈ 7.12 µg/mL) | 12.7 | >254 | 254 | 3.2 (≈ 1.79 µg/mL) | no degradation could be detected |  |  |  |  |  |  |  |  |  |  |  |  |
| CC(C)(C)c1ccc(CC(CN)(Cc2ccc(C(C)(C)C)cc2)C(=O)N[C@@H](CCCNC(=N)N)C(N)=O)cc1 [Compound 4k] | 6.5 (≈ 3.49 µg/mL) | 6.5 | 6.5 (≈ 3.49 µg/mL) | 5.2 (≈ 2.79 µg/mL) | 5.0 | 46 (≈ 24.7 µg/mL) | 46 | 3.3 (≈ 1.77 µg/mL) | no degradation could be detected |  |  |  |  |  |  |  |  |  |  |  |  |
| NCCNC(=O)C(CN)(Cc1ccc(C(F)(F)F)cc1)Cc1ccc(C(F)(F)F)cc1 [Compound 9, 3-amino-N-(2-aminoethyl)-2,2-bis(4-(trifluoromethyl)benzyl)propanamide] |  |  |  |  |  |  |  |  |  |  |  |  |  |  |  |  |  |  |  |  | MIC [1, 12]: 10 µg/mL; MIC [2, 13]: 5 µg/mL; MIC [3, 14]: 10 µg/mL; MIC [4, 15]: 35 µg/mL; EC50 [6, 16]: 287 µg/mL; Anti-Cancer Selectivity MRC-5/A20 [8]: 10-12; Anti-Cancer Selectivity RBC/A20 [8]: 287; Toxicity MRC-5 ([9]; Example 2): 12 µg/mL; IC50 [9]: < 10 µg/mL |
| CC(C)(C)c1ccc(CC(CN)(Cc2ccc(C(C)(C)C)cc2)C(=O)NCCN)cc1 [Compound 11, 3-amino-N-(2-aminoethyl)-2,2-bis(4-tert-butylbenzyl)propanamide] |  |  |  |  |  |  |  |  |  |  |  |  |  |  |  |  |  |  |  |  | MIC [1, 12]: 2.5 µg/mL; MIC [2, 13]: 2.5 µg/mL; MIC [3, 14]: 2.5 µg/mL; MIC [4, 15]: 5 µg/mL; EC50 [6, 16]: 12 µg/mL; Anti-Cancer Selectivity MRC-5/A20 [8]: 3.6; Anti-Cancer Selectivity RBC/A20 [8]: 10.9; IC50 [9]: 4 µg/mL (≈ 9.44 µM) |
| CN1CCN(C(=O)C(CN)(Cc2ccc(C(C)(C)C)cc2)Cc2ccc(C(C)(C)C)cc2)CC1 [Entry 5d] |  |  |  |  |  |  |  |  |  | 23 | 15 | 23 | 15 | 48 | 7.2 | 23 | 15 | 1.2 | 289 | 348 |  |
| CN(C)CCNC(=O)C(CN)(Cc1ccc(C(C)(C)C)cc1)Cc1ccc(C(C)(C)C)cc1 [Entry 6d] |  |  |  |  |  |  |  |  |  | 37 | 7.4 | 37 | 7.4 | 74 | 3.7 | 37 | 7.4 | 3.7 | 74 | 274 |  |
| CC(C)(C)c1ccc(CC(CN)(Cc2ccc(C(C)(C)C)cc2)C(=O)NCCN)cc1 [Entry 7d] |  |  |  |  |  |  |  |  |  | 4.7 | 3.8 | 4.7 | 3.8 | 4.7 | 3.8 | 2.3 | 7.7 | 0.8 | 23 | 18 |  |
